How the values were obtained:
FGFR1 = FGFR1 (Homo sapiens, UniProt P11362); test: FGFR inhibition assay (33P-ATP radiometric kinase assay), FGFR1; assay type: biochemical; settings: 20 μM KKKSPGEYVNIEFG peptide substrate, 10 μM final ATP, 2 hours at room temperature
Procedure: (§1) The potency of test compounds in inhibiting FGFR1 and FGFR4 was determined. 20 μM of [KKKSPGEYVNIEFG] peptide substrate was added to the reaction buffer (20 mM 4-(2-hydroxyethyl)-1-piperazineethanesulfonic acid (HEPES) (pH 7.5), 10 mM MgCl2, 1 mM egtazic acid (EGTA), 0.02% BRIJ®-35, 0.02 mg/ml bovine serum albumin (BSA), 0.1 mM Na3VO4, 2 mM dithiothreitol (DTT), and 1% DMSO) for FGFR1. 0.2 mg/mL of poly[Glu:Tyr] (4:1) peptide substrate was added to the reaction buffer (20 mM 4-(2-hydroxyethyl)-1-piperazineethanesulfonic acid (HEPES) (pH 7.5), 10 mM MgC12, 1 mM egtazic acid (EGTA), 0.02% BRIJ®-35, 0.02 mg/ml bovine serum albumin (BSA), 0.1 mM Na3VO4, 2 mM dithiothreitol (DTT), and 1% DMSO) for FGFR4. Next, FGFR1 or FGFR4 was added to the substrate solution and gently mixed.
(§2) Test compounds were dissolved in 100% dimethyl sulphoxide (DMSO) and then three-fold serially diluted in DMSO using an epMotion® 5070 robotic pipettor. The diluted test compounds, from 0.00001 M to 5.08053E-10 M, were added to corresponding substrate solutions, and the resulting substrate/compound solutions were incubated for 20 min at room temperature. Radioactive ATP (^33P-ATP) was added to each substrate/compound solution to initiate the kinase activity of FGFR1 or FGFR4 and were incubated for 2 hours at room temperature (10 μM final [ATP]). Reactions were spotted onto P81 ion exchange paper, washed to remove excess radiolabeled ATP and kinase activity determined by quantification of radioactive spots.
(§3) The half maximal inhibitory concentration (IC50) values for FGFR1 and FGFR4 were determined for each compound assayed and are shown in Table 2.

FGFR4 = FGFR4 (Homo sapiens, UniProt P22455); test: FGFR inhibition assay (33P-ATP radiometric kinase assay), FGFR4; assay type: biochemical; settings: for IC50: 0.2 mg/mL poly[Glu:Tyr] (4:1) substrate, 10 μM final ATP, 2 hours at room temperature; for inhibition of FGFR4 compared with FGFR1 (selectivity): concentration inhibiting FGFR4 versus concentration inhibiting FGFR1, from Table 2 IC50 values
Chain of FGFR4 (P22455 22-802): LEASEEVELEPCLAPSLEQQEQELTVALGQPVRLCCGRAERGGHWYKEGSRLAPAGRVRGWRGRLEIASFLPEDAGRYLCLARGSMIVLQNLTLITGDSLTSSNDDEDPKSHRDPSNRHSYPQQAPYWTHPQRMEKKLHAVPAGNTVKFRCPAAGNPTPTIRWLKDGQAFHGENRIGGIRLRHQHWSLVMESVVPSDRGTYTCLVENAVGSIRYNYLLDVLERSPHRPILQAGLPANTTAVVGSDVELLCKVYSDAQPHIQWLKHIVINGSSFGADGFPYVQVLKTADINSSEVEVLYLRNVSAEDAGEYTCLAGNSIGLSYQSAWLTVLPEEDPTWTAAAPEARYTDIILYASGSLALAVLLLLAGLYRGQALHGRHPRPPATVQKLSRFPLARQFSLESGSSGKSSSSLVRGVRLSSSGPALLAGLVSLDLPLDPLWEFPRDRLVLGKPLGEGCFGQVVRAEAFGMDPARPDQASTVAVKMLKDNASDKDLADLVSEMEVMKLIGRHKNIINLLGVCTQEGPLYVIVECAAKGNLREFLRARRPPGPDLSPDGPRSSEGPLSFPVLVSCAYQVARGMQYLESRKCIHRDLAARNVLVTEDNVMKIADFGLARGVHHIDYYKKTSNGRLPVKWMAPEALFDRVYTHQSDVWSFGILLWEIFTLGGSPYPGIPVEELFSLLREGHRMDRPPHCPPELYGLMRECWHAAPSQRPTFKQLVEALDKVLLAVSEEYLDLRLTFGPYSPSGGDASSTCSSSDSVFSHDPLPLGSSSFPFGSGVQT
Procedure: as §1, §2, §3

Chain of FGFR1 (P11362 22-822): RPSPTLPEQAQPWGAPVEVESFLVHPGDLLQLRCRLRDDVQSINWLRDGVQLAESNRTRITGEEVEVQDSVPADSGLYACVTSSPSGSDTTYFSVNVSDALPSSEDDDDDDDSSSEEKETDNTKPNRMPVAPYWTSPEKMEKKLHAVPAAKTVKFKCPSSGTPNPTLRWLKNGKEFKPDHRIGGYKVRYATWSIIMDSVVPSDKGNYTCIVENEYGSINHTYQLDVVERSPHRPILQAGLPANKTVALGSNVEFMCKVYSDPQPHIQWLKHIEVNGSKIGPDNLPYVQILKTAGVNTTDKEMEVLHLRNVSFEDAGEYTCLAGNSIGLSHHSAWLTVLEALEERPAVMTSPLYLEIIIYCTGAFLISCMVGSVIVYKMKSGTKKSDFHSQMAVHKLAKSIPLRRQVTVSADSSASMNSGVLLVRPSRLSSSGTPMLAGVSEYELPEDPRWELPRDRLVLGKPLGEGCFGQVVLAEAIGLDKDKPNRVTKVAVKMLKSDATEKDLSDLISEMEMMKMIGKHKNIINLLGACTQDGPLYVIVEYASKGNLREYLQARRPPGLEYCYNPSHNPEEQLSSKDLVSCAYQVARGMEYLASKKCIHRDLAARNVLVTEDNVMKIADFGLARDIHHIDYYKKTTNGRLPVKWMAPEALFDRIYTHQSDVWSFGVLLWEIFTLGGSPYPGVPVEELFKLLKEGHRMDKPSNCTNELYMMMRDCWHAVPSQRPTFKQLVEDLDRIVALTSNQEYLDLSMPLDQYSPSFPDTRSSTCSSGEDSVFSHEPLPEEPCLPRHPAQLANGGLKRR

SMILES	IC50 (FGFR1)	IC50 (FGFR4)	inhibition of FGFR4 compared with FGFR1 (selectivity) (FGFR4)
COc1cc(OC)c(F)c(COc2cnc(NC(=O)N3CCCc4ccc(C=O)nc43)nc2)c1F [Example 1, N-(5-((2,6-difluoro-3,5-dimethoxybenzyl)oxy)pyrimidin-2-yl)-7-formyl-3,4-dihydro-1,8-naphthyridine-1(2H)-carboxamide]	5600 nM	0.8 nM	dramatically lower concentration
COc1cc(OC)c(F)c(COc2ccc(NC(=O)N3CCCc4ccc(C=O)nc43)nc2)c1F [Example 2, N-(5-((2,6-difluoro-3,5-dimethoxybenzyl)oxy)pyridin-2-yl)-7-formyl-3,4-dihydro-1,8-naphthyridine-1(2H)-carboxamide]	> 10000 nM	5.9 nM	dramatically lower concentration
COc1cc(OC)c(F)c(COc2cnc(NC(=O)N3CCCc4cc(CN5CCN(C)CC5=O)c(C=O)nc43)nc2)c1F [Example 3, N-(5-((2,6-difluoro-3,5-dimethoxybenzyl)oxy)pyrimidin-2-yl)-7-formyl-6-((4-methyl-2-oxopiperazin-1-yl)methyl)-3,4-dihydro-1,8-naphthyridine-1(2H)-carboxamide]	140 nM	< 0.5 nM	
COc1cc(OC)c(F)c(COc2cnc(NC(=O)N3CCCc4c(C)cc(C=O)nc43)nc2)c1F [Example 5, N-(5-((2,6-difluoro-3,5-dimethoxybenzyl)oxy)pyrimidin-2-yl)-7-formyl-5-methyl-3,4-dihydro-1,8-naphthyridine-1(2H)-carboxamide]	130 nM	1.9 nM	

Other lines, results leading:

IC50 (FGFR1)	IC50 (FGFR4)	inhibition of FGFR4 compared with FGFR1 (selectivity) (FGFR4)	SMILES
63 nM	1 nM		COc1cc(OC)c(F)c(CCc2cnc(NC(=O)N3CCCc4ccc(C=O)nc43)nc2)c1F [Example 6, N-(5-(2,6-difluoro-3,5-dimethoxyphenethyl)pyrimidin-2-yl)-7-formyl-3,4-dihydro-1,8-naphthyridine-1(2H)-carboxamide]
1000 nM	0.9 nM		COc1cc(OC)c(F)c(/C=C/c2cnc(NC(=O)N3CCCc4ccc(C=O)nc43)nc2)c1F [Example 7, (E)-N-(5-(2,6-difluoro-3,5-dimethoxystyryl)pyrimidin-2-yl)-7-formyl-3,4-dihydro-1,8-naphthyridine-1(2H)-carboxamide]
330 nM	2.5 nM		COc1cc(OC)c(F)c(C#Cc2cnc(NC(=O)N3CCCc4ccc(C=O)nc43)nc2)c1F [Example 8, N-(5-((2,6-difluoro-3,5-dimethoxyphenyl)ethynyl)pyrimidin-2-yl)-7-formyl-3,4-dihydro-1,8-naphthyridine-1(211)-carboxamide]
